Assay: on-resin all-hydrocarbon stapling by ring-closing metathesis of S5/S5 (i,i+4) or R8/S5 (i,i+7), Grubbs first-generation catalyst (0.45 mmol per 0.15 mmol resin, 3 equiv), then TFA/TIPS/phenol/H2O cleavage and RP-HPLC
Settings: the molecule shown is the open-chain precursor, 25.0 °C, 4.0 h, 36 steps

Compound | ring closure, overall yield (21-membered ring, 1,2-dichloroethane) [% yield] | ring closure, overall yield (33-membered ring, 1,2-dichloroethane) [% yield]
C=CCCC[C@](C)(NC(=O)[C@H](C)NC(=O)[C@@H](NC(=O)[C@H](CCCCNC(=O)OC(C)(C)C)NC(=O)[C@H](CCCCNC(=O)OC(C)(C)C)NC(=O)[C@@H](NC(=O)[C@@H](NC(=O)[C@H](C)NC(=O)[C@H](Cc1ccccc1)NC(=O)[C@H](CC(C)C)NC(=O)CNC(C)=O)C(C)C)[C@@H](C)CC)C(C)C)C(=O)N[C@H](C(=O)N[C@H](C(=O)N[C@@H](CCCCNC(=O)OC(C)(C)C)C(=O)N[C@@](C)(CCCC=C)C(=O)N[C@@H](CC(C)C)C(N)=O)[C@@H](C)CC)C(C)C | 62 | –
C=CCCCCCC[C@@](C)(NC(=O)CNC(C)=O)C(=O)N[C@@H](Cc1ccccc1)C(=O)N[C@@H](C)C(=O)N[C@H](C(=O)N[C@H](C(=O)N[C@@H](CCCCNC(=O)OC(C)(C)C)C(=O)N[C@@H](CCCCNC(=O)OC(C)(C)C)C(=O)N[C@@](C)(CCCC=C)C(=O)N[C@@H](C)C(=O)N[C@@H](COC(C)(C)C)C(=O)N[C@H](C(=O)N[C@H](C(=O)N[C@@H](CCCCNC(=O)OC(C)(C)C)C(=O)NCC(=O)N[C@@H](CC(C)C)C(N)=O)[C@@H](C)CC)C(C)C)[C@@H](C)CC)C(C)C | – | 63

— article PMC7758422, “Design, Synthesis, and Antitumor Activities Study of Stapled A4K14-Citropin 1.1 Peptides” (Frontiers in Chemistry, 2020)
